Results on four compounds are retold here after patent US20140088114A1, “FUSED BICYCLIC KINASE INHIBITORS” (OSI Pharmaceuticals ,LLC, priority 2011, published 2014).

Like-named read-outs stand apart in the source and are kept apart here.

Assay type in all cases: cell-based
The target in one test is T1, RON (Homo sapiens, UniProt Q04912).
T1 construct: expressed in transfected cells; host or cells: HeLa
T1 sequence (Q04912 913-1400 limits assumed): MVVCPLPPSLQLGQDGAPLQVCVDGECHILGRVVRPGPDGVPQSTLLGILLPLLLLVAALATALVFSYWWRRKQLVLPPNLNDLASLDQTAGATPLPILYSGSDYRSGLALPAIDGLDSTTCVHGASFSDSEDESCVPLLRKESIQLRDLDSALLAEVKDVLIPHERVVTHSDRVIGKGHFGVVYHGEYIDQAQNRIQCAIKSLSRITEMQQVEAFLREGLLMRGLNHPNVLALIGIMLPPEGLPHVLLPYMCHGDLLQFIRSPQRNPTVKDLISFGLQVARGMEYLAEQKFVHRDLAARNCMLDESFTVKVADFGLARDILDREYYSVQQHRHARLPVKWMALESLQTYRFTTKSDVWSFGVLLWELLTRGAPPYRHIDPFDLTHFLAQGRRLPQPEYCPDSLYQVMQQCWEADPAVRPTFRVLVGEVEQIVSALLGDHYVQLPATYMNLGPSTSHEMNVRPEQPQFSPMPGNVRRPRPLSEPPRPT
Description: sfRON cell mechanistic assay (HeLa), phosphorylated RON. Here is the method: The cellular activity of the compounds of the present invention against RON may be determined by the following procedure. HeLa cells were plated in Falcon 3072 96-well plates in growth media (DMEM, 10% FBS, 1% L-glutamine) at a density of 10000 cells/well and incubated at 37° C., 5% CO2 overnight. The following day, cells were transfected with 0.2 μg sfRON-pcDNA plasmid DNA with 0.5 μL Lipofectamine2000 per well in the presence of 50 μL OPTI-MEM, incubated at 37° C., 5% CO2 overnight. Costar 3915 96-well assay plates were coated with rabbit Anti-RON antibody at 2.0 μg/mL, sealed, and incubated overnight at 4° C. On the third day, coated plates were washed with PBS and blocked with 3% BSA. For the sfRON transfected cells, one-tenth volume of a 10× concentration of compounds was added to the wells in a 6-point dilution series. The dilution series was composed of an initial 1:5 dilution of a 10 mM DMSO stock solution of compound in DMSO, followed by a 1:10 dilution in growth media, for a final DMSO concentration on cells of 0.5%. Control wells were treated with 0.5% DMSO. The typical range of dilution was 10 μM to 3 nM. Once compound was added to the cells, plates were incubated for four hours at 37° C., 5% CO2. Plates were then washed in PBS, and lysed in triton-based lysis buffer. Lysates were transferred to the blocked capture plates. The phosphorylated RON levels were measured by incubating with a Goat polyclonal antibody against phosphorylated RON ([pYpY1238/1239]) followed by an anti-Goat antibody conjugated to HRP. Signal was measured on a Wallac Victor plate reader with luminance. The DMSO signal of the control wells was defined as 100% and the percent of inhibition of phosphorylated RON was expressed as percent of control. IC50 values were determined from the percent of control data using a standard four-parameter model.
The IC50 values of exemplary compounds of the present invention determined in a sfRON cell mechanistic assay using the HeLa cell line according to the procedures described herein in at least duplicate experiments are abbreviated as follows and are shown in Table 3: A, IC50≦0.03 μM; B, 0.03 μM<IC50≦0.1 μM; C, 0.1 μM<IC50≦1 μM; D, 1 μM<IC50≦3 μM; ND, not determined. The Example # of Table 3 corresponds to the compound example number as illustrated in the Examples section.

The target in the next test is T2, Aurora B (Homo sapiens, UniProt Q96GD4).
T2 construct: HT-29 cells grown in complete growth media; endogenous in cells; host or cells: HT-29
T2 sequence (Q96GD4 whole entry): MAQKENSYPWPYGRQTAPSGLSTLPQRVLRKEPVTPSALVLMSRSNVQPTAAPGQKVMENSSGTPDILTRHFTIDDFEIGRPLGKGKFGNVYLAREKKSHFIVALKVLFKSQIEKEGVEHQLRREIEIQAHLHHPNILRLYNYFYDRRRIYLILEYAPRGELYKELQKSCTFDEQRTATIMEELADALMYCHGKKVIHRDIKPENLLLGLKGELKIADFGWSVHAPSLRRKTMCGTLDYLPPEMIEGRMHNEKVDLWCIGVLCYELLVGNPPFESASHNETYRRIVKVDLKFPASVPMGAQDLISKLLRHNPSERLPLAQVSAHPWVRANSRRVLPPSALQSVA
Description: Aurora B cell mechanistic assay (HT-29), phospho-Histone H3 (Ser10) ELISA. To be noted: HT-29 cell line, inhibition of phospho-Histone H3 (Ser10), at least duplicate experiments (italicized if single); read-out: Aurora B mech IC50. Here is the method:
The cellular activity of the compounds of the present invention against Aurora B may be determined by the following procedure. HT-29 cells grown in complete growth media (McCoy's 5A, 10% FCS, 1% L-glutamine) were plated into wells of a 96 well tissue culture plate (Falcon 3072) at a cell density of 4×10^4 cells/0.09 ml media/well. Cells were subsequently incubated overnight in a 5% CO2 humidified 37° C. incubator. The following day 10 μl of a 10× stock of test compound serially diluted in media was added to the cells and incubated for 1 h at 37° C. at which time Calyculin A (Cell Signaling #9902) was added at a concentration of 100 nM and cells incubated for an additional 30 minutes in a 5% CO2 humidified 37° C. incubator. Media was then aspirated and cells lysed using a Triton based lysis buffer. Lysates were transferred to a pre-coated anti-Histone H3 antibody coated plate supplied by Cell Signaling in their PathScan phospho-Histone H3 (Ser10) ELISA kit (#7155). After an overnight incubation with lysate the ELISA was continued following the manufacturer's instructions. Signal was measured on a Wallac Victor plate reader at 450 nm. DMSO control treated cells served as 100% signal and an Aurora B kinase inhibitor served as 100% inhibition. The percent inhibition of phospho-Histone H3 (Ser10) was expressed as % control. IC50 values were calculated from the percent control data using a standard four-parameter model.
The IC50 values of exemplary compounds of the present invention determined in a Aurora B cell mechanistic assay using the HT-29 cell line according to the procedures described herein in at least duplicate experiments are abbreviated as follows and are shown in Table 4: A, IC50≦0.03 μM; B, 0.03 μM<IC50≦0.1 μM; C, 0.1 μM<IC50≦1 μM; D, 1 μM<IC50≦3 μM; ND, not determined. If only data from single experiments are available, the abbreviations are italicized. The Example # of Table 4 corresponds to the compound example number as illustrated in the Examples section.
For orientation: ELISA stands for enzyme-linked immunosorbent assay.

For a further test, the system named is Karpas-299 cells. Description: Karpas-299 cell proliferation assay (CellTiter-Glo). Particulars: Homo sapiens, 72 h; Karpas-299 cell line (NPM-ALK), 3 days incubation, at least duplicate experiments; read-out: Prolif. IC50. Here is the method:
The effect of inhibitors on the proliferation of Karpas-299 cells (DSMZ no. ACC 31) was determined using the following protocol. Karpas-299 cells were plated in 96-well white tissue culture treated plates (Corning 3917) in growth medium (RPMI, 10% FCS) at a density of 5000 cells/well in a total volume of 135 μL and incubated at 37° C., 5% CO2, 95% humidity overnight. The following day, one-tenth volume of a 10× concentration of compounds was added to the wells in an 8-point dilution series. Compounds were serially diluted (1:4) in DMSO from a 10 mM stock solution prior to dilution in growth media to the 10× working concentrations (5% DMSO). Final concentration of DMSO in compound-treated wells was 0.5%. Control wells containing growth media or growth media/0.5% DMSO were included in all test plates. The typical dilution range is 10 μM to 0.1 nM. Once the compounds were added to the cells, plates were incubated for 3 days at 37° C., 5% CO2 at 95% humidity. After 72 hours, all cells and reagents were equilibrated to room temperature and 15 μL of CellTiter-Glo reagent (Promega #G7573) was added to each well. Plates were shaken on a platform for 10 minutes at room temperature prior to reading luminescence. The value of the signal of the control wells was set as 100% growth and growth inhibition was expressed as percent of control. IC50 values were determined from the percent of control data using a standard four-parameter curve fit equation.
The IC50 values of exemplary compounds of the present invention determined in a cell proliferation assay using the Karpas-299 cell line according to the procedures described herein in at least duplicate experiments are abbreviated as follows and are shown in Table 5: A, IC50≦0.03 μM; B, 0.03 μM<IC50≦0.1 μM; C, 0.1 μM<IC50≦1 μM; D, 1 μM<IC50≦3 μM; ND, not determined. The Example # of Table 5 corresponds to the compound example number as illustrated in the Examples section.
The Karpas-299 cell line has a t(2;5) chromosomal translocation and expresses the NPM-ALK fusion protein, resulting in constitutively active ALK. […] Ther. 6(12):3314-22 (2007)]. With this “ALK-driven” cell line by ALK, the cell proliferation IC50 values can thus be used as surrogate for the p-ALK cell mechanistic IC50 values.

[1] abbreviates: Table 6: comparison X = C1-3haloalkyl vs. X = C1-3alkyl, read-out: sfRON cell mechanistic.

`COc1ccc(F)c(Cl)c1[C@@H](C)c1c[nH]c2ncc(-c3cnn([C@H]4CC[C@H](O)CC4)c3)cc12` [reference compound]: the IC50 on RON (setting [1]) was in the range of 100 to 1000 nM.
Consider `COc1ccc(F)c(Cl)c1[C@H](CF)c1c[nH]c2ncc(-c3cnn([C@H]4CC[C@H](O)CC4)c3)cc12` [Example 2, trans-4-(4-{3-[(1R)-1-(2-chloro-3-fluoro-6-methoxyphenyl)-2-fluoroethyl]-1H-pyrrolo[2,3-b]pyridin-5-yl}-1H-pyrazol-1-yl)cyclohexanol], for which the IC50 on RON (sfRON transfected HeLa cells, four hours incubation, inhibition of phosphorylated RON, at least duplicate experiments, read-out: sfRON mech IC50) is 1000 to 3000 nM; on Aurora B it was 100 to 1000 nM; with Karpas-299 cells, 100 to 1000 nM.
In the case of `CC(c1c(Cl)ccc(F)c1Cl)c1c[nH]c2ncc(-c3cnn(C)c3)cc12` (stereo not drawn) [reference compound], the IC50 on RON (setting [1]) was in the range of 1000 to 3000 nM.
On to `C[C@H](c1c(OC(F)F)ccc(F)c1Cl)c1c[nH]c2ncc(-c3cnn([C@H]4CC[C@H](O)CC4)c3)cc12` [reference compound], for which the IC50 at RON (setting [1]) lay in the range of 30 to 100 nM.
